Assay results: ChEMBL document CHEMBL3991601, “The target landscape of clinical kinase drugs” (Science, 2017)
The source made the active and inactive calls. For most assays here, no stated cut-off is given here; in the data, actives have a measured Kd and inactives only a lower limit.

These compounds were tested against Ribosomal protein S6 kinase alpha-1 (Homo sapiens, UniProt Q15418).
Chain of Ribosomal protein S6 kinase alpha-1 (Q15418 whole entry): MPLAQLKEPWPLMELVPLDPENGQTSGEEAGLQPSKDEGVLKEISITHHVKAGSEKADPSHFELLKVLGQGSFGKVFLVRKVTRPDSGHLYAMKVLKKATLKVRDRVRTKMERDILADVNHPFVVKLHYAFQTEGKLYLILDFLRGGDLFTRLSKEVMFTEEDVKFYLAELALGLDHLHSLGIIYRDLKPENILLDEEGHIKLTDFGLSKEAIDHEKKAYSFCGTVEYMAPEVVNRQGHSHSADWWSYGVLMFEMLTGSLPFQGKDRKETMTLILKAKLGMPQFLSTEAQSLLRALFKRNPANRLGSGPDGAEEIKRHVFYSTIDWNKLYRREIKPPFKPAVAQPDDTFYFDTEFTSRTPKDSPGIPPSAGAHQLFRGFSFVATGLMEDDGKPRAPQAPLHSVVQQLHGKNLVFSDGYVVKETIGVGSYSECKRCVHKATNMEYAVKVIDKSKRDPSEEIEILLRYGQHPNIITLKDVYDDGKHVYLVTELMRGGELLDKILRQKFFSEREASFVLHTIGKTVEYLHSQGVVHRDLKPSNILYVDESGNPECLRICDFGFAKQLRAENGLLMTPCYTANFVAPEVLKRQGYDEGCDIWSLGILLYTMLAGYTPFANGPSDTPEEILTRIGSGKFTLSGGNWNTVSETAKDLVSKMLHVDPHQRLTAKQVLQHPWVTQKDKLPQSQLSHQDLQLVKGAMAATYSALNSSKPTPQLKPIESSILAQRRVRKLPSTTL

Structure (SMILES)	Kd
Cn1cc(-c2ccc3nnc(C(F)(F)c4ccc5ncccc5c4)n3n2)cn1 [JNJ-38877605]	> 30 µM (inactive)
Cc1c(F)cc(C(=O)NC2CC2)cc1-c1ccc(C(=O)NCC(C)(C)C)cn1 [LOSMAPIMOD]	> 30 µM (inactive)
Cc1ccc(-n2nc(C(C)(C)C)cc2NC(=O)NCc2cc(F)ccc2Oc2ccc3c(cnn3CCO)c2)cc1 [PEXMETINIB]	> 30 µM (inactive)

Each compound was assayed against DNA topoisomerase 2-alpha (Homo sapiens, UniProt P11388).

Structure (SMILES)	Kd
Cn1cc(-c2ccc3nnc(C(F)(F)c4ccc5ncccc5c4)n3n2)cn1 [JNJ-38877605]	> 30 µM (inactive)
Cc1c(F)cc(C(=O)NC2CC2)cc1-c1ccc(C(=O)NCC(C)(C)C)cn1 [LOSMAPIMOD]	> 30 µM (inactive)
Cc1ccc(-n2nc(C(C)(C)C)cc2NC(=O)NCc2cc(F)ccc2Oc2ccc3c(cnn3CCO)c2)cc1 [PEXMETINIB]	> 30 µM (inactive)

These compounds were tested against T1, Serine/threonine-protein kinase D3 (Homo sapiens, UniProt O94806).
T1 sequence (O94806 whole entry): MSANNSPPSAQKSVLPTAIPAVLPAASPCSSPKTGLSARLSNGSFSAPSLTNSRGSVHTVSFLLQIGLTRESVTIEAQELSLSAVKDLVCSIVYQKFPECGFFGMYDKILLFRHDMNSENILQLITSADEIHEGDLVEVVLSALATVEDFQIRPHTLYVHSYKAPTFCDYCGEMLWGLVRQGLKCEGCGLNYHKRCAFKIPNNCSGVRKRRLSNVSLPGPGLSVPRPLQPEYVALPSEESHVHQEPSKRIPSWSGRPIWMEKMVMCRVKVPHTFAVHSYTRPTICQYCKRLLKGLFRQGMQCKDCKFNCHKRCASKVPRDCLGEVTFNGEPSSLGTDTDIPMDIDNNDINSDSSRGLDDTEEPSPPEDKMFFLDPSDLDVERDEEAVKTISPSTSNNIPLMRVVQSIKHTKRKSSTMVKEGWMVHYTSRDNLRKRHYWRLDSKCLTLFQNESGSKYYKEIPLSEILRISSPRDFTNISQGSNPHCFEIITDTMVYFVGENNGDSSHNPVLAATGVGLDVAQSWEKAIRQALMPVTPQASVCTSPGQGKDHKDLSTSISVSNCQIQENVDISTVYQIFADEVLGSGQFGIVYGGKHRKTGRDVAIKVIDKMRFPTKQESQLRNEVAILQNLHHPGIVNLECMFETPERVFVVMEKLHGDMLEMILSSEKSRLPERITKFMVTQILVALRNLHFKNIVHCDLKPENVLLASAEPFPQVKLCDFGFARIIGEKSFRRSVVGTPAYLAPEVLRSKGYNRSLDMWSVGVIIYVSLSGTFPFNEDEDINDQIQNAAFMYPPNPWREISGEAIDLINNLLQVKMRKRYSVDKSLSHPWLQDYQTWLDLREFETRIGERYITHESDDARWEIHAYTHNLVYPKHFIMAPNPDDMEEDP

Structure (SMILES)	Kd
Cn1cc(-c2ccc3nnc(C(F)(F)c4ccc5ncccc5c4)n3n2)cn1 [JNJ-38877605]	> 30 µM (inactive)
Cc1c(F)cc(C(=O)NC2CC2)cc1-c1ccc(C(=O)NCC(C)(C)C)cn1 [LOSMAPIMOD]	> 30 µM (inactive)
Cc1ccc(-n2nc(C(C)(C)C)cc2NC(=O)NCc2cc(F)ccc2Oc2ccc3c(cnn3CCO)c2)cc1 [PEXMETINIB]	> 30 µM (inactive)

Each compound was assayed against Aurora kinase B (Homo sapiens, UniProt Q96GD4).
Chain of Aurora kinase B (Q96GD4 whole entry): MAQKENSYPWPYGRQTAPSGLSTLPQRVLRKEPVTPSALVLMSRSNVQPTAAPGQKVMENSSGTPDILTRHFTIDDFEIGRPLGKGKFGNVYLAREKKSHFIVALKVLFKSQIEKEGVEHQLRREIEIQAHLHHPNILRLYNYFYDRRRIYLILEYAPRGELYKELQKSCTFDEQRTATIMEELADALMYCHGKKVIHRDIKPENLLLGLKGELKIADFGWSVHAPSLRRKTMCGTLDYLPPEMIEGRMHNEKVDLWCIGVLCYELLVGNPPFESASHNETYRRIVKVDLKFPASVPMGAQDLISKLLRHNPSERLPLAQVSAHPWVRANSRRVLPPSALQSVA

Structure (SMILES)	Kd
Cn1cc(-c2ccc3nnc(C(F)(F)c4ccc5ncccc5c4)n3n2)cn1 [JNJ-38877605]	> 30 µM (inactive)
Cc1c(F)cc(C(=O)NC2CC2)cc1-c1ccc(C(=O)NCC(C)(C)C)cn1 [LOSMAPIMOD]	> 30 µM (inactive)
Cc1ccc(-n2nc(C(C)(C)C)cc2NC(=O)NCc2cc(F)ccc2Oc2ccc3c(cnn3CCO)c2)cc1 [PEXMETINIB]	> 30 µM (inactive)

These compounds were tested against Cyclin-dependent kinase 5 (Homo sapiens, UniProt Q00535).
Chain of Cyclin-dependent kinase 5 (Q00535 whole entry): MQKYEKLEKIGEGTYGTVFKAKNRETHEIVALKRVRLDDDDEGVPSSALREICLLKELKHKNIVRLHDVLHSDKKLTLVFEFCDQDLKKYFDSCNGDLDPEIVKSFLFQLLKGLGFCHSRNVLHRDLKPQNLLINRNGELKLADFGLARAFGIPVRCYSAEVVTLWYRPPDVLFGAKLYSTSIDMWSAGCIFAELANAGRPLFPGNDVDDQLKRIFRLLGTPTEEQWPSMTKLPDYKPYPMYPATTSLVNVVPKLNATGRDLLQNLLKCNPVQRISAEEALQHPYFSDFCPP

Structure (SMILES)	Kd
Cn1cc(-c2ccc3nnc(C(F)(F)c4ccc5ncccc5c4)n3n2)cn1 [JNJ-38877605]	> 30 µM (inactive)
Cc1c(F)cc(C(=O)NC2CC2)cc1-c1ccc(C(=O)NCC(C)(C)C)cn1 [LOSMAPIMOD]	> 30 µM (inactive)
Cc1ccc(-n2nc(C(C)(C)C)cc2NC(=O)NCc2cc(F)ccc2Oc2ccc3c(cnn3CCO)c2)cc1 [PEXMETINIB]	4.16 µM (active)

What follows are compounds tested against Cyclin-dependent kinase 7 (Homo sapiens, UniProt P50613).
Chain of Cyclin-dependent kinase 7 (P50613 whole entry): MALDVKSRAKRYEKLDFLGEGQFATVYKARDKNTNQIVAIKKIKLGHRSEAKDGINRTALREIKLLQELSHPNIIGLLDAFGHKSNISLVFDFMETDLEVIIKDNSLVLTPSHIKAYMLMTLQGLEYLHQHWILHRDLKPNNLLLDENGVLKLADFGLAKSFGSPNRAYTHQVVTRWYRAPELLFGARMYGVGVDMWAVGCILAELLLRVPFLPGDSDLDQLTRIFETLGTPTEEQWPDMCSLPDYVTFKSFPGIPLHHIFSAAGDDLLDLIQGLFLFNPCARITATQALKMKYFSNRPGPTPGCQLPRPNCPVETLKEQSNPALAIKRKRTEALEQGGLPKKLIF

Structure (SMILES)	Kd
Cn1cc(-c2ccc3nnc(C(F)(F)c4ccc5ncccc5c4)n3n2)cn1 [JNJ-38877605]	> 30 µM (inactive)
Cc1c(F)cc(C(=O)NC2CC2)cc1-c1ccc(C(=O)NCC(C)(C)C)cn1 [LOSMAPIMOD]	> 30 µM (inactive)
Cc1ccc(-n2nc(C(C)(C)C)cc2NC(=O)NCc2cc(F)ccc2Oc2ccc3c(cnn3CCO)c2)cc1 [PEXMETINIB]	> 30 µM (inactive)

The compounds below were run against T2, Calcium/calmodulin-dependent protein kinase type IV (Homo sapiens, UniProt Q16566).
T2 sequence (Q16566 whole entry): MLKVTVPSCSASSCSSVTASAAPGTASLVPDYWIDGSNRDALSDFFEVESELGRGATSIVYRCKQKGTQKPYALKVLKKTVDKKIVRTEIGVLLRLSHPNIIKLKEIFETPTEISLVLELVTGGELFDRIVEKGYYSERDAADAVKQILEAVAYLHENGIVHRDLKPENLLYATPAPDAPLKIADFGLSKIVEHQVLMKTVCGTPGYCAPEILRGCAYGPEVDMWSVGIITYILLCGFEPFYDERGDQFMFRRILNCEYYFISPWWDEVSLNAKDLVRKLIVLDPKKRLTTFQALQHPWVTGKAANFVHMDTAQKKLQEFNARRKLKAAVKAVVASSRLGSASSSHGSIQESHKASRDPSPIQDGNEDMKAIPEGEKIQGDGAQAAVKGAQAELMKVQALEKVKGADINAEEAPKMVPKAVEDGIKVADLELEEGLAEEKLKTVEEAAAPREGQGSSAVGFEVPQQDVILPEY

Structure (SMILES)	Kd
Cn1cc(-c2ccc3nnc(C(F)(F)c4ccc5ncccc5c4)n3n2)cn1 [JNJ-38877605]	> 30 µM (inactive)
Cc1c(F)cc(C(=O)NC2CC2)cc1-c1ccc(C(=O)NCC(C)(C)C)cn1 [LOSMAPIMOD]	> 30 µM (inactive)
Cc1ccc(-n2nc(C(C)(C)C)cc2NC(=O)NCc2cc(F)ccc2Oc2ccc3c(cnn3CCO)c2)cc1 [PEXMETINIB]	> 30 µM (inactive)

The compounds below were run against T3, Membrane-associated tyrosine- and threonine-specific cdc2-inhibitory kinase (Homo sapiens, UniProt Q99640).
T3 sequence (Q99640 whole entry): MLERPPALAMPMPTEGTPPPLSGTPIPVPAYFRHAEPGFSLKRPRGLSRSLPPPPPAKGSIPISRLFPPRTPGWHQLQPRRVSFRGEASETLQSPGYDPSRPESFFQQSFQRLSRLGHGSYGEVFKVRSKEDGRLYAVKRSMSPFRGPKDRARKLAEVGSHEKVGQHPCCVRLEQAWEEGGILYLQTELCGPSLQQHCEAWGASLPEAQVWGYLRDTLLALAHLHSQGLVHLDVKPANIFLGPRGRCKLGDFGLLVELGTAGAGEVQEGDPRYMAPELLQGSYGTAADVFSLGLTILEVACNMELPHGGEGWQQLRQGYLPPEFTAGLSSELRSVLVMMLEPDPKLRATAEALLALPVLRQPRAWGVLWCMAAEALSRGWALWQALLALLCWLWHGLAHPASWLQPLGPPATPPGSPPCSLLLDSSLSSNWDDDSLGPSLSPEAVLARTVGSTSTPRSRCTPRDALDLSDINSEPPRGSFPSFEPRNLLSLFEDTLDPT

Structure (SMILES)	Kd
Cn1cc(-c2ccc3nnc(C(F)(F)c4ccc5ncccc5c4)n3n2)cn1 [JNJ-38877605]	> 30 µM (inactive)
Cc1c(F)cc(C(=O)NC2CC2)cc1-c1ccc(C(=O)NCC(C)(C)C)cn1 [LOSMAPIMOD]	> 30 µM (inactive)
Cc1ccc(-n2nc(C(C)(C)C)cc2NC(=O)NCc2cc(F)ccc2Oc2ccc3c(cnn3CCO)c2)cc1 [PEXMETINIB]	> 30 µM (inactive)

These compounds were tested against Insulin receptor (Homo sapiens, UniProt P06213).
Chain of Insulin receptor (P06213 28-758 limits assumed): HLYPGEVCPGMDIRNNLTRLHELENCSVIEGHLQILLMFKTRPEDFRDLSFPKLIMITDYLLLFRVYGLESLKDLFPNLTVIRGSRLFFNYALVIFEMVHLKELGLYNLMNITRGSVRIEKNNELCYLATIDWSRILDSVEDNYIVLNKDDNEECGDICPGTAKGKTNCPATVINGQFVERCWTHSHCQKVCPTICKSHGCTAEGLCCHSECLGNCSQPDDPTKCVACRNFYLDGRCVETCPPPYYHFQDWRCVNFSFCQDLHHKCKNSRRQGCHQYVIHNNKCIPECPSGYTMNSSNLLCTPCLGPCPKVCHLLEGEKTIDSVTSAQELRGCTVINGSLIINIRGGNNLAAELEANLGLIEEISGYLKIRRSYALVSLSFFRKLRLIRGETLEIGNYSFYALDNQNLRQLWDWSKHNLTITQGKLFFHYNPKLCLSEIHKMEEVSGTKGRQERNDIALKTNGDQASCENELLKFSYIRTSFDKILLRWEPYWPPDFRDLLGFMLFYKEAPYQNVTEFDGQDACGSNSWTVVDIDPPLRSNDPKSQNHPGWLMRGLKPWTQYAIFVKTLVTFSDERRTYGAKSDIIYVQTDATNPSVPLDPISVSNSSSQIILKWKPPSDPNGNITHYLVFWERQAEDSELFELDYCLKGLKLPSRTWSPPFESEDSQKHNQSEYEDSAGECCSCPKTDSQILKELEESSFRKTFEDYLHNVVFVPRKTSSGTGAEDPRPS
Chain of Insulin receptor (P06213 763-1382 limits assumed): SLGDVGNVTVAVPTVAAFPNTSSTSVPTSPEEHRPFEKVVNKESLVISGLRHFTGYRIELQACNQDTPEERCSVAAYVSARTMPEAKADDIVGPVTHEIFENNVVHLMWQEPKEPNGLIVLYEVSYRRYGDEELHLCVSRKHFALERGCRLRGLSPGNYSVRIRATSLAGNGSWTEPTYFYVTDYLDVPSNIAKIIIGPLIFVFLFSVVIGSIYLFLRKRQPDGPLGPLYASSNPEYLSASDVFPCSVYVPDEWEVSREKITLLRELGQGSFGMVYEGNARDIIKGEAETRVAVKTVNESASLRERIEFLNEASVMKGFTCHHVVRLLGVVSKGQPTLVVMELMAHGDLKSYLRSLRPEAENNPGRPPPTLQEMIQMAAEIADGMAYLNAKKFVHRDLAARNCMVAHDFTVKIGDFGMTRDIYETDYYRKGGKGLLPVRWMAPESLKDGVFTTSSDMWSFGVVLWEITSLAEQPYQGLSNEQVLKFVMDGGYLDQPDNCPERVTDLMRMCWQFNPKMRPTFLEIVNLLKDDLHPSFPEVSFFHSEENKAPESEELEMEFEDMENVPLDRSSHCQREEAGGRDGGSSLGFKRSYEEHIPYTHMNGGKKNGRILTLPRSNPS

Structure (SMILES)	Kd
Cn1cc(-c2ccc3nnc(C(F)(F)c4ccc5ncccc5c4)n3n2)cn1 [JNJ-38877605]	> 30 µM (inactive)
Cc1c(F)cc(C(=O)NC2CC2)cc1-c1ccc(C(=O)NCC(C)(C)C)cn1 [LOSMAPIMOD]	> 30 µM (inactive)
Cc1ccc(-n2nc(C(C)(C)C)cc2NC(=O)NCc2cc(F)ccc2Oc2ccc3c(cnn3CCO)c2)cc1 [PEXMETINIB]	> 30 µM (inactive)

The compounds below were run against T4, Very long-chain specific acyl-CoA dehydrogenase, mitochondrial (Homo sapiens, UniProt P49748).
T4 sequence (P49748 whole entry): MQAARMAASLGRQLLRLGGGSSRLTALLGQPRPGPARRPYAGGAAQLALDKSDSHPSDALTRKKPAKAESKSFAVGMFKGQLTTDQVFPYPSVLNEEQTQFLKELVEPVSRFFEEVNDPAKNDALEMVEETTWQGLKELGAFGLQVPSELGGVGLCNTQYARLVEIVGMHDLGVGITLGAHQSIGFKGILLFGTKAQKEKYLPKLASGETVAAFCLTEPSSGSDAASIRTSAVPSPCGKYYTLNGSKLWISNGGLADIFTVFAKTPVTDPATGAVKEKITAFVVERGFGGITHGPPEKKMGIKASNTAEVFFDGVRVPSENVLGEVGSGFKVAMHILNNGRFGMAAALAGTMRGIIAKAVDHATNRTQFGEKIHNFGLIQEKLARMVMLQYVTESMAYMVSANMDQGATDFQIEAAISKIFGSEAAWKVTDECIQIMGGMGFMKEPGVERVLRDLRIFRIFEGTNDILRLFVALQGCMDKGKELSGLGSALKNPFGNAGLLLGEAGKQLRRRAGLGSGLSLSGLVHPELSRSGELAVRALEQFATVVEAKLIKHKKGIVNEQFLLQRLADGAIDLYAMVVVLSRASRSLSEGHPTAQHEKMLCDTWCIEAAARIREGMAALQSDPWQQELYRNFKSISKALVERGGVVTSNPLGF

Structure (SMILES)	Kd
Cn1cc(-c2ccc3nnc(C(F)(F)c4ccc5ncccc5c4)n3n2)cn1 [JNJ-38877605]	> 30 µM (inactive)
Cc1c(F)cc(C(=O)NC2CC2)cc1-c1ccc(C(=O)NCC(C)(C)C)cn1 [LOSMAPIMOD]	> 30 µM (inactive)
Cc1ccc(-n2nc(C(C)(C)C)cc2NC(=O)NCc2cc(F)ccc2Oc2ccc3c(cnn3CCO)c2)cc1 [PEXMETINIB]	> 30 µM (inactive)

The compounds below were run against Serine/threonine-protein kinase SIK3 (Homo sapiens, UniProt Q9Y2K2).
Chain of Serine/threonine-protein kinase SIK3 (Q9Y2K2 whole entry): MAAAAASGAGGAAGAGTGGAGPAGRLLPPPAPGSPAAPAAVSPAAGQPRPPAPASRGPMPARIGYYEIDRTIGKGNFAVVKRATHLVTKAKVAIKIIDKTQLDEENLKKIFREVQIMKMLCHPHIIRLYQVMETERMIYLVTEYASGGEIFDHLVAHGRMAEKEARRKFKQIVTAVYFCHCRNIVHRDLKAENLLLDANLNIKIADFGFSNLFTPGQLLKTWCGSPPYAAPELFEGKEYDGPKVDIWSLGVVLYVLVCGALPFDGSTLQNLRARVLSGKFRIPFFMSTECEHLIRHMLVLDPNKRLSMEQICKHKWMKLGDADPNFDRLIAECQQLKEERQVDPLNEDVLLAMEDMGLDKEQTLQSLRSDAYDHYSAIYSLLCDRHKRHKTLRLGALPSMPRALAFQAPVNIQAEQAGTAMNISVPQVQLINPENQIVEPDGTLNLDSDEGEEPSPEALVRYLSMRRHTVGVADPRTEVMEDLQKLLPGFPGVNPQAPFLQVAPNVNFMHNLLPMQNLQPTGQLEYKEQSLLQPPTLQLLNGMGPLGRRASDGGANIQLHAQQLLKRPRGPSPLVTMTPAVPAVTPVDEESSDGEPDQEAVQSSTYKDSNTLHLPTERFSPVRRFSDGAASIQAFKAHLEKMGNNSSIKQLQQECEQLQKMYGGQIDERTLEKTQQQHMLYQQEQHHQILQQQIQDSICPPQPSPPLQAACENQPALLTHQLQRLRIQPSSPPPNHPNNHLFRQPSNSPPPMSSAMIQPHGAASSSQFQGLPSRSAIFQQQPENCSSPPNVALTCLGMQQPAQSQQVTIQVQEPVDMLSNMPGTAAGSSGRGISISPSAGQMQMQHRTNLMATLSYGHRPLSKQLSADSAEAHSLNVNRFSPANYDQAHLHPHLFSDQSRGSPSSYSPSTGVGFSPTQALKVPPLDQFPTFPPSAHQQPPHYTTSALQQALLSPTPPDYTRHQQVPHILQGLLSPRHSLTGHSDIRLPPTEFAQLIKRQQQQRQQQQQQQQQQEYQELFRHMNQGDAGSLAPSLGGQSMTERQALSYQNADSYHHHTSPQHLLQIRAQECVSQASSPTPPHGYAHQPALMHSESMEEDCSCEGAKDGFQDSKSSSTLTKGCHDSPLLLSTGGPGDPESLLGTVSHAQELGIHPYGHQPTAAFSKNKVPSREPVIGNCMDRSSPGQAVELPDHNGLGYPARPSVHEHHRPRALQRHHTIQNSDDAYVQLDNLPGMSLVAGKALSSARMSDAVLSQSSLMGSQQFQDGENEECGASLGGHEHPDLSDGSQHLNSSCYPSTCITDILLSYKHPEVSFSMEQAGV

Structure (SMILES)	Kd
Cn1cc(-c2ccc3nnc(C(F)(F)c4ccc5ncccc5c4)n3n2)cn1 [JNJ-38877605]	> 30 µM (inactive)
Cc1c(F)cc(C(=O)NC2CC2)cc1-c1ccc(C(=O)NCC(C)(C)C)cn1 [LOSMAPIMOD]	> 30 µM (inactive)
Cc1ccc(-n2nc(C(C)(C)C)cc2NC(=O)NCc2cc(F)ccc2Oc2ccc3c(cnn3CCO)c2)cc1 [PEXMETINIB]	> 30 µM (inactive)

These compounds were tested against Serine/threonine-protein kinase 10 (Homo sapiens, UniProt O94804).

Structure (SMILES)	Kd
Cn1cc(-c2ccc3nnc(C(F)(F)c4ccc5ncccc5c4)n3n2)cn1 [JNJ-38877605]	> 30 µM (inactive)
Cc1c(F)cc(C(=O)NC2CC2)cc1-c1ccc(C(=O)NCC(C)(C)C)cn1 [LOSMAPIMOD]	> 30 µM (inactive)
Cc1ccc(-n2nc(C(C)(C)C)cc2NC(=O)NCc2cc(F)ccc2Oc2ccc3c(cnn3CCO)c2)cc1 [PEXMETINIB]	> 30 µM (inactive)
